In publication PMC8049364, “Quantification of Macrophage-Driven Inflammation During Myocardial Infarction with ^18F-LW223, a Novel TSPO Radiotracer with Binding Independent of the rs6971 Human Polymorphism” (Journal of Nuclear Medicine, 2021):

Target: T1, TSPO (Rattus norvegicus, UniProt P16257)
T1 construct: Thirty-three adult male Sprague–Dawley rats; from tissue; host or cells: living adult male Sprague-Dawley rats; heart, LV anterior wall, lung and brain VOIs
Assay: PET/CT imaging and 2-tissue-compartment kinetic modelling in naïve and PK11195-blocked rats
Type: in vivo
Parameters: K1 (2T analysis), mean / k2 (2T analysis), mean / k3 (2T analysis), mean / k4 (2T analysis), mean / VT (2T analysis), mean: unit not given here
Experimental: Thirty-two PET scans were performed with ^18F-LW223 (17.8 ± 1.5 MBq, intravenous bolus, mean ± SEM). Naïve and MI rat scans were acquired immediately after intravenous bolus injection of ^18F-LW223. […] Dosimetry studies were conducted using mice and 240-min PET scans.
A commercially available system (Twilite2; Swisstrace) was used for the measurement of blood radioactivity as previously described ([17]). The whole-blood arterial input function measured by the automatic blood sampler was corrected for the plasma–to–whole-blood ratio and for metabolism in vivo.
Data were acquired using a PET/CT small-animal scanner (nanoPET/CT; Mediso). A CT scan (semicircular full trajectory, maximum field of view, 480 projections, 50 kVp, 300 ms, and 1:4 binning) was acquired for attenuation correction. Immediately after radiotracer administration, a 120- or 240-min emission scan was obtained using 3-dimensional 1:5 mode. For rat studies, rebinning was 18 × 10 s, 2 × 30 s, 1 × 60 s, 2 × 2 min, 10 × 5 min, 6 × 10 min, or 18 × 10 min. For mouse studies, rebinning was 4 × 5 min, 4 × 10 min, or 9 × 20 min. Rat PET studies were reconstructed using the iterative Tera-Tomo 3-dimensional reconstruction algorithm (Mediso), which includes point-spread correction, and the following settings: 4 iterations, 6 subsets, full detector model, low regularization, spike filter on, voxel size of 0.4 mm, and 400- to 600-keV energy window. Mouse dosimetry PET data were reconstructed using filtered backprojection, a voxel size of 0.4 mm, and a 400- to 600-keV energy window. All PET data were corrected for randoms, scatter, and attenuation.
Reconstructed scans were imported into PMOD, version 3.8 (PMOD Technologies). Volumes of interest (VOIs) were manually drawn around the brain, heart, and lung using CT images. To sample the infarct area (or an equivalent area in naïve hearts), averaged PET images (0–120 min) were used to place 3 spheric VOIs at the center of the infarct territory within the ventricular wall (1.5 mm^3). […] Time–activity curves were generated, and SUVs were calculated as concentration in the VOI divided by injected dose divided by animal weight. Kinetic modeling was performed using the 2-tissue-compartment model to estimate the kinetic rate constants K1–k4 and the total volume of distribution (VT) in different tissues. Blood volume fraction (VB) was not modeled in this study. Two-tissue-compartment modeling was selected as the preferred model on the basis of a comparison of goodness and robustness of fitting versus several other models (Supplemental Fig. 3; Supplemental Table 2). The binding potential relative to nondisplaceable volume (BPND) was defined as k3/k4 ([19]). The transfer-corrected BPND, termed BPTC, was formulated as follows:Eq. 1 BPTC=k3/k4÷K1,

[1] = Brain, Blocked Naive (PK11195, 1mg/kg) n = 3
[2] = Global Heart, Blocked Naive (PK11195, 1mg/kg) n = 3
[3] = LV Anterior Wall, Blocked Naive (PK11195, 1mg/kg) n = 3
[4] = Lung, Blocked Naive (PK11195, 1mg/kg) n = 3

## CC[C@@H](C)N(C)C(=O)c1nc2ccccc2c(-c2ccccc2)c1C[18F] [^18F-LW223]
[1]
  K1 (2T analysis), mean: 0.06
  VT (2T analysis), mean: 0.93
  k2 (2T analysis), mean: 0.11
  k3 (2T analysis), mean: 2.324
  k3/k4 (2T analysis), mean: 0.71
  k4 (2T analysis), mean: 2.33
Brain, Naive n = 6
  K1 (2T analysis), mean: 0.14
  VT (2T analysis), mean: 1.6
  k2 (2T analysis), mean: 0.18
  k3 (2T analysis), mean: 0.016
  k3/k4 (2T analysis), mean: 1.22
  k4 (2T analysis), mean: 0.01
[2]
  K1 (2T analysis), mean: 0.19
  VT (2T analysis), mean: 4.56
  k2 (2T analysis), mean: 0.23
  k3 (2T analysis), mean: 0.721
  k3/k4 (2T analysis), mean: 4.52
  k4 (2T analysis), mean: 0.13
Global Heart, Naive n = 6
  K1 (2T analysis), mean: 0.58
  VT (2T analysis), mean: 9.93
  k2 (2T analysis), mean: 0.33
  k3 (2T analysis), mean: 0.031
  k3/k4 (2T analysis), mean: 4.77
  k4 (2T analysis), mean: 0.01
[3]
  K1 (2T analysis), mean: 0.28
  VT (2T analysis), mean: 75.25
  k2 (2T analysis), mean: 0.08
  k3 (2T analysis), mean: 0.855
  k3/k4 (2T analysis), mean: 12.64
  k4 (2T analysis), mean: 0.23
LV Anterior Wall, Naive n = 6
  K1 (2T analysis), mean: 0.9
  VT (2T analysis), mean: 29.95
  k2 (2T analysis), mean: 0.26
  k3 (2T analysis), mean: 0.033
  k3/k4 (2T analysis), mean: 7.99
  k4 (2T analysis), mean: 0.00
[4]
  K1 (2T analysis), mean: 0.16
  VT (2T analysis), mean: 2.2
  k2 (2T analysis), mean: 0.35
  k3 (2T analysis), mean: 0.181
  k3/k4 (2T analysis), mean: 3.19
  k4 (2T analysis), mean: 0.05
Lung, Naive n = 6
  K1 (2T analysis), mean: 0.94
  VT (2T analysis), mean: 6.94
  k2 (2T analysis), mean: 0.32
  k3 (2T analysis), mean: 0.031
  k3/k4 (2T analysis), mean: 1.38
  k4 (2T analysis), mean: 0.02
PK11195 1 mg/kg intravenously, blocking and displacement
  specificity of in vivo binding to TSPO: blocked and displaced by PK11195
Anterior wall of naïve animals
  BPTC: 10.0 ± 2.4 cm^3/mL/min
Mice and rats
  excretion routes: both the urinary and the hepatobiliary excretion routes
naïve rat
  Peak SUV, brain: 0.83 ± 0.18 g/mL
rat
  SUVpeak, heart: 2.5
  SUVpeak, lung: 4.0
  VT in the brain: 1.1–2.2 mL/cm^3
